Among the data in ChEMBL document CHEMBL3351829, “Nostosins, Trypsin Inhibitors Isolated from the Terrestrial Cyanobacterium Nostoc sp. Strain FSN” (J Nat Prod, 2014) are IC50 and inhibition values, retold here.

Bounds are passed on as bounds.

Assay [1] concerns the target T1, Trypsin (Sus scrofa, UniProt P00761). Nature of the assay: (§1) Inhibition of pig pancreas trypsin type IX-S using Boc-Gln-Ala-Arg-MCA substrate by 7-amino-4-methylcoumarin release based spectrofluorometry.
For assay [2], the target named is T1, Trypsin. Nature of the assay: Inhibition of pig pancreas trypsin type IX-S.
The target of a further assay is Trypsin (Sus scrofa) (UniProt P00761). Described as §1. The following applies: TDE = time-dependent effect.

By IC50 is commonly meant the point on the concentration scale where inhibition reaches its midpoint. Higher therefore signals a need for much substance.

T1 sequence (P00761 whole entry): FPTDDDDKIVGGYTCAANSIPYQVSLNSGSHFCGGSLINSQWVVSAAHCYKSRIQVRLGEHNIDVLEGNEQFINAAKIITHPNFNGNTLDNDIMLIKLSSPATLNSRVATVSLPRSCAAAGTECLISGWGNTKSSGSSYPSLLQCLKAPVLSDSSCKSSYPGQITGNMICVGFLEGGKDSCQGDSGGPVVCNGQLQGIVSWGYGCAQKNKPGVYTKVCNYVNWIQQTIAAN
Sequence of Trypsin (Sus scrofa) (P00761 whole entry): as above

Take `C[C@H]1C[C@@H](C(=O)NC(C=O)CCCNC(=N)N)N(C(=O)[C@@H](CCc2ccc(O)cc2)NC(=O)[C@H](O)Cc2ccc(O)cc2)C1` (some centres not stated) [SPUMIGIN E]: the IC50 against Trypsin [1] was less than 100 nM.
`CC(=O)N[C@@H](CC(C)C)C(=O)N[C@@H](CC(C)C)C(=O)N[C@H](C=O)CCCNC(=N)N` [LEUPEPTIN]: the IC50 at Trypsin [1] was 500 nM; on Trypsin [2] it was greater than 200 nM.
As to `CC[C@H](C)[C@H](NC(=O)C(O)CCc1ccc(O)cc1)C(=O)N[C@H](C=O)CCCNC(=N)N` (some centres not stated), the inhibition entry on Trypsin (Sus scrofa) was “tde”. On Trypsin [1], this compound showed an IC50 of 350 nM.
On the same counts, the results for `CC[C@H](C)[C@H](NC(=O)C(O)CCc1ccc(O)cc1)C(=O)N[C@H](CO)CCCNC(=N)N` (some centres not stated) are “tde” and 55000 nM.
